In assay [1] the test system is MC38-Ova dim colon carcinoma. The assay is described as follows: Intra-tumoral corticosterone in LysMCre+ Cyp11a1fl/fl mice bearing MC38-Ova dim, tumor progression. Format: in vivo, mouse. Conditions: intra-tumoral corticosterone 2.5 mg/kg, Days 5, 6, 7 and 9.
Experimental: Tumor experiments. Tumor size was measured in two dimensions by caliper and is expressed as the product of two perpendicular diameters. […] Mice were then monitored for tumor growth. […] In vivo and in vitro modulation of glucocorticoid synthesis. MC38-Ova^dim was implanted in wild type C57BL/6 mice and either Metyrapone (50 mg/kg; Fisher Scientific), Corticosterone (2.5 mg/kg) or vehicle control PBS (Gibco) was administered intra-tumorally on Day 5, 6, 7 and 9 post-tumor implantation.
Another assay relates to CD8+ TILs. The assay is described as follows: Flow cytometry of CD8+ TILs from Metyrapone-treated tumor-bearing mice. The class given is in vivo, mouse. Conditions: intra-tumoral Metyrapone, early stage of tumor progression. The method, then: Isolation of TILs. TILs were isolated by dissociating tumor tissue in the presence of collagenase D (2.5 mg/ml) for 20 minutes prior to centrifugation on a discontinuous Percoll gradient (GE Healthcare). Isolated cells were then used in various assays. Flow cytometry. […] Antigen specific […] […] In vivo and in vitro modulation of glucocorticoid synthesis. MC38-Ova^dim was implanted in wild type C57BL/6 mice and either Metyrapone (50 mg/kg; Fisher Scientific), Corticosterone (2.5 mg/kg) or vehicle control PBS (Gibco) was administered intra-tumorally on Day 5, 6, 7 and 9 post-tumor implantation. In some experiments, MC38-Ova^dim tumor explants or sorted lin^-CD45^+CD24^- cells were cultured in the presence or absence of Metyrapone (25 or 50 ng/ml) for 24 hrs. Supernatants were harvested and corticosterone measured by ELISA (Arbor Assays).
In general terms: In flow cytometry, cells or beads pass a laser one at a time.

The test system of another assay is MC38-Ova colon carcinoma. Put plainly: Intra-tumoral Metyrapone in MC38-Ova tumor-bearing mice, tumor growth. Format: in vivo, mouse. The settings on record: 50 mg/kg, Days 5, 6, 7 and 9. The text has this:
Tumor cell lines used. MC38-Ova^dim was generously provided by Mark Smyth. B16F10 was purchased from ATCC. MC38 was generously provided by Carla Rothlin. MC38-Ova^dim-GFP was generated in Applicants lab as follows, HEK293T cells were transfected with pLenti PGK GFP Puro plasmid. The resulting Lentivirus was then used to infect Mc38Ova^dim cell line to generate a GFP expressing cell line. MC38-Ova^dim (0.5×10^6) or B16F10 (0.25×10^6) and MC38-Ova^dim-GFP (0.5×10^6) cells were implanted subcutaneously into the right flank of mice.
Tumor experiments. Tumor size was measured in two dimensions by caliper and is expressed as the product of two perpendicular diameters. In some experiments, mice were treated with anti-PD-1 (RMP1-14) ([…]) antibodies or control immunoglobulin (Rat IgG2a) i.p. on days 5, 8 and 11 post-tumor implantation. Mice were then monitored for tumor growth. […] Antibodies were administered bi-weekly for a total of 5 treatments (n=9-10).
In vivo and in vitro modulation of glucocorticoid synthesis. MC38-Ova^dim was implanted in wild type C57BL/6 mice and either Metyrapone (50 mg/kg; Fisher Scientific), Corticosterone (2.5 mg/kg) or vehicle control PBS (Gibco) was administered intra-tumorally on Day 5, 6, 7 and 9 post-tumor implantation. […] Supernatants were harvested and corticosterone measured by ELISA (Arbor Assays).

Assay [2] deals with Lin-CD45+CD24- monocyte/macrophages from MC38-Ova tumors. Put plainly: Tumor-associated monocyte/macrophages cultured with Metyrapone, corticosterone ELISA. Format: cell-based, mouse. Conditions: 24 hrs culture ex vivo. The method, then: (§1) In vivo and in vitro modulation of glucocorticoid synthesis. MC38-Ova^dim was implanted in wild type C57BL/6 mice and either Metyrapone (50 mg/kg; Fisher Scientific), Corticosterone (2.5 mg/kg) or vehicle control PBS (Gibco) was administered intra-tumorally on Day 5, 6, 7 and 9 post-tumor implantation. In some experiments, MC38-Ova^dim tumor explants or sorted lin^−CD45^+CD24^− cells were cultured in the presence or absence of Metyrapone (25 or 50 ng/ml) for 24 hrs. Supernatants were harvested and corticosterone measured by ELISA (Arbor Assays).
Background: In an ELISA, binding on a coated surface is turned into a signal by an enzyme label.

Another assay concerns MC38-Ova tumor explants. Put plainly: MC38-Ova tumor explants cultured with Metyrapone, corticosterone ELISA. Format: cell-based, mouse. Conditions: 24 hrs, Metyrapone 25 or 50 ng/ml. As for the experimental part:
as §1

Assay [3] has as its system CD8+ T cells. The assay is described as follows: RNA-Seq of naive CD8+ T cells cultured with Dex (GC), IL-27 or GC+IL-27 (Tables 1, 2A, 2B, 3, 5-8). Format: cell-based, mouse.
Assay [4] relates to CD8+ T cells. Put plainly: Quantitative RT-PCR of Prdm1, Nfil3 and Tcf7 in GC, IL-27 or GC+IL-27 treated CD8+ T cells. The class given is cell-based, mouse. The settings on record: qPCR. The method, then: Cell culture and treatment with glucocorticoid.
Quantitative PCR. Total RNA was extracted using RNeasy columns (Qiagen) or PicoPure™ RNA Isolation Kit (Thermo Fischer). Reverse transcription of mRNA was performed in a thermal cycler (Bio-Rad) using iScript cDNA Synthesis Kit (Bio-Rad) or SuperScript™ VILO™ cDNA Synthesis Kit (Thermo Fischer). qPCR was performed in the Vii7 Real-Time PCR system (Applied Biosystems) using the primers for Taqman gene expression (Applied Biosystems). Data were normalized to the expression of Actb.
(In general: Real-time PCR tracks product formation cycle by cycle.)

[5] abbreviates: treated CD8+ T cells, three values per condition, listed as Dex.
Setting [6] is: treated CD8+ T cells, three values per condition.

Here are results for 4 molecules from patent US11793787B2, “Methods and compositions for enhancing anti-tumor immunity by targeting steroidogenesis” (The Broad Institute, Inc., priority 2019, dated 2023).

Where “and” joins values, the source holds several entries; their conditions need not be identical. Identical values can stand only once. Entries after “also recorded” stand apart in the source; their conditions may differ.

On to `C[C@]12C[C@H](O)[C@H]3[C@@H](CCC4=CC(=O)CC[C@@]43C)[C@@H]1CC[C@@H]2C(=O)CO` [corticosterone], for which the “control of tumor progression in LysMCre+ Cyp11a1fl/fl mice” value in assay [1] is “abrogated”.

Take `CC(C)(C(=O)c1cccnc1)c1cccnc1` [Metyrapone]: the “functional properties of CD8+ TILs compared with loss of GR in CD8+ T cells” value with CD8+ TILs was “resembled that of CD8^+ TILs from E8i-Cre^+ Nr3c1^fl/fl mice and LysM-Cre^+ Cyp11a1^fl/fl mice”; in the assay on CD8+ TILs (listed as metyrapone), “phenocopies CD8 GR cKO”. Besides, the tumor growth entry in the assay with MC38-Ova colon carcinoma was “dramatic tumor growth inhibition”. The “corticosterone production by tumor-associated monocyte/macrophages” value in assay [2] is on record as “dramatically reduced; also recorded: significantly inhibited”. The “level of corticosterone in tumor explant supernatants” value in the assay with MC38-Ova tumor explants was “reduced and less”.

`C[C@@H]1C[C@H]2[C@@H]3CCC4=CC(=O)C=C[C@]4(C)[C@@]3(F)[C@@H](O)C[C@]2(C)[C@@]1(O)C(=O)CO` [dexamethasone]: in the assay with CD8+ T cells [3] (GC versus vehicle control, Table 8), the “number of GC-induced genes overlapping with the T cell dysfunction signature” value stood at 463. Also, in the assay with CD8+ T cells [3] (setting [5]), the 1124 expression levels was 156.6 and 224.35 and 191; the CD28 expression levels was 31.98 and 33.89 and 35.83; the Lilrb4 expression levels was 179.28 and 174.41 and 160.09; the Nupr1 expression levels is 11.81 and 14.26 and 21.7. In the assay on CD8+ T cells [3] (setting [5]), the Tcf7 expression levels was 9.54 and 8.42 and 8.72; the Tgfb3 expression levels is 8.53 and 5.51 and 5.9.

B1: IL-27: heterodimeric cytokine of the IL-12 family composed of EBI3 and IL-27p28 (protein, UniProt Q14213 21-229; Q8NEV9 29-243, looked up)
Interleukin-27 subunit beta: RKGPPAALTLPRVQCRASRYPIAVDCSWTLPPAPNSTSPVSFIATYRLGMAARGHSWPCLQQTPTSTSCTITDVQLFSMAPYVLNVTAVHPWGSSSSFVPFITEHIIKPDPPEGVRLSPLAERQLQVQWEPPGSWPFPEIFSLKYWIRYKRQGAARFHRVGPIEATSFILRAVRPRARYYVQVAAQDLTDYGELSDWSLPATATMSLGK
Interleukin-27 subunit alpha: FPRPPGRPQLSLQELRREFTVSLHLARKLLSEVRGQAHRFAESHLPGVNLYLLPLGEQLPDVSLTFQAWRRLSDPERLCFISTTLQPFHALLGGLGTQGRWTNMERMQLWAMRLDLRDLQRHLRFQVLAAGFNLPEEEEEEEEEEEEERKGLLPGALGSALQGPAQVSWPQLLSTYRLLHSLELVLSRAVRELLLLSKAGHSVWPLGFPTLSPQP
For the molecule B1, in the assay with CD8+ T cells [4], the Tcf7 expression result is “dramatically reduced”. Moreover, in the assay with CD8+ T cells [3] (setting [6]), the CD28 expression levels was 48.93 and 37.2 and 39.84; the Lilrb4 expression levels is 73.62 and 94.25 and 105.87; the Nupr1 expression levels was 11.93 and 21.86 and 19.79; the Tcf7 expression levels was 5.37 and 7.39 and 5.57.
